Activity data for four compounds are collected here from ChEMBL document CHEMBL3046264, “Juvenile hormone activity of ethyl 4-(2-aryloxyhexyloxy)benzoates with precocious metamorphosis-inducing activity” (Biosci Biotechnol Biochem, 2007).

Test [1] concerns Bombyx mori. Description: Induction of precocious metamorphosis in allatectomized fourth-instar larvae of Bombyx mori Shunei x Shougetsu assessed as juvenile hormone activity at 1 ug applied topically to dorsal abdomen of larvae. The format is functional, organism-based.
The subject of test [2] is Bombyx mori. Description: Induction of precocious metamorphosis in allatectomized fourth-instar larvae of Bombyx mori Shunei x Shougetsu assessed as juvenile hormone activity at 10 to 40 ug applied topically to dorsal abdomen of larvae. It counts as functional, organism-based.

Activity calls are given as the source filed them. The rule behind the calls is not given here.

Turning to `CCCCC(COc1ccc(C(=O)OCC)cc1)Oc1ccc(C)nc1` (stereo unspecified), the outcome with Bombyx mori [1] was inactive. Moreover, the result in the test on Bombyx mori [2] was Active.

In the case of `COC(C)(C)CCC[C@H](C)C/C=C/C(C)=C/C(=O)OC(C)C`, the outcome with Bombyx mori [1] was Active.

Consider `CCCCC(COc1ccc(C(=O)OCC)cc1)Oc1ccccc1` (stereo unspecified), for which the result with Bombyx mori [1] was inactive. The result in the test with Bombyx mori [2] was Active.

With `CCOC(=O)c1ccc(OCC(CC)OC(=O)C(C)(C)C)cc1` (stereo unspecified), in the test on Bombyx mori [1], the result was Active.
